From patent US9365604B2, “Oligomer-nucleoside phosphate conjugates” (NEKTAR THERAPEUTICS, priority 2007, dated 2016)
Read-outs that look alike come from different tables or passages of the source.

Tests used:
[1] = test system: DU145; assay: Sulforhodamine B (SRB) growth inhibition assay; type: cell-based, Human; details: SRB assay
Procedure: (§1) The aim was to determine the GI50 values for PEG-floxuridine conjugates against a panel of cell lines, and based on previous data from Xenograft studies. […] The test articles were solubilized in dimethylsulfoxide and were tested at four different molar (M) concentrations; 10^−4, 10^−5, 10^−6, M. GI50 (the concentration needed to reduce the growth of treated cells to half that of untreated control cells) was calculated for each condition ([(Ti−Tz)/(C-Tz)]×100=50, where Ti, Tz, and C refer to absorbance values obtained from each tested concentration, time zero, and control treatment, respectively).
as §1, with “The objective” for “The aim”, “the IC50” for “the GI50”, “for PEG-gemcitabine” for “for PEG-floxuridine”, “in dimethyl sulfoxide” for “in dimethylsulfoxide”, “10^−6, 10^−7” for “10^−6,”, “condition ([(Ti−Tz)/(C−Tz)]×100=50,” for “condition ([(Ti−Tz)/(C-Tz)]×100=50,”

[2] = test system: COLO205; assay: Sulforhodamine B (SRB) growth inhibition assay; type: cell-based, Human; details: for GI50: COLO205, SRB assay; for ratio vs gem (GI50) COLO-205: GI50 of conjugate vs gemcitabine
Procedure: (§2) In Vitro Screening of PEG-Gemcitabine Monophosphate in Selected Human Cancer Cell Lines
as §1
as §1, with “The objective” for “The aim”, “the IC50” for “the GI50”, “for PEG-gemcitabine” for “for PEG-floxuridine”, “in dimethyl sulfoxide” for “in dimethylsulfoxide”, “10^−6, 10^−7” for “10^−6,”, “condition ([(Ti−Tz)/(C−Tz)]×100=50,” for “condition ([(Ti−Tz)/(C-Tz)]×100=50,”

[3] = test system: NCI/ADR-RES; assay: Sulforhodamine B (SRB) growth inhibition assay; type: cell-based, Human
Procedure: as §2
(§3) The aim was to determine the GI50 values for PEG-floxuridine conjugates against a panel of cell lines, and based on previous data from Xenograft studies. The cells were exposed for 24 h, and cell viability assessed by using the Sulphorhodamine (SRB) assay. The test articles were solubilized in dimethylsulfoxide and were tested at four different molar (M) concentrations; 10^−4, 10^−5, 10^−6, M. GI50 (the concentration needed to reduce the growth of treated cells to half that of untreated control cells) was calculated for each condition ([(Ti−Tz)/(C-Tz)]×100=50, where Ti, Tz, and C refer to absorbance values obtained from each tested concentration, time zero, and control treatment, respectively).
as §3, with “The objective” for “The aim”, “the IC50” for “the GI50”, “for PEG-gemcitabine” for “for PEG-floxuridine”, “in dimethyl sulfoxide” for “in dimethylsulfoxide”, “10^−6, 10^−7” for “10^−6,”, “condition ([(Ti−Tz)/(C−Tz)]×100=50,” for “condition ([(Ti−Tz)/(C-Tz)]×100=50,”

[4] = test system: HCT-116; assay: In vitro cytotoxicity assay (CellTiter-Glo); type: cell-based; details: for IC50: 72 h exposure, CellTiter-Glo
Procedure: (§4) The objective of these studies were to determine the IC50 values for PEG-floxuridine conjugates against floxuridine-resistant cell lines based on data from previous Xenograft studies. The cells were exposed for 72 h, and cell viability assessed by using the CellTiter-Glo assay.
(§5) The objective of these studies was to determine the IC50 values for PEG-gemcitabine conjugates against gemcitabine-resistant cell lines based on data from previous Xenograft studies. The cells were exposed for 72 h, and cell viability assessed by using the CellTiter-Glo assay.

[5] = test system: HT-29; assay: In vitro cytotoxicity assay (CellTiter-Glo); type: cell-based; details: for IC50: 72 h exposure, CellTiter-Glo
Procedure: as §4, §5

[6] = test system: MIA PaCa-2; assay: In vitro cytotoxicity assay (CellTiter-Glo); type: cell-based; details: for IC50: 72 h exposure, CellTiter-Glo
Procedure: as §4, §5

[7] = test system: AS283; assay: In vitro cytotoxicity assay (CellTiter-Glo); type: cell-based; details: for IC50: 72 h exposure, CellTiter-Glo
Procedure: as §5

[8] = test system: CCRF-CEM; assay: In vitro cytotoxicity assay (CellTiter-Glo); type: cell-based; details: for IC50: 72 h exposure, CellTiter-Glo
Procedure: as §5

[9] = test system: DLD-1; assay: In vitro cytotoxicity assay (CellTiter-Glo); type: cell-based; details: for IC50: 72 h exposure, CellTiter-Glo
Procedure: as §5

[10] = test system: HL-60; assay: In vitro cytotoxicity assay (CellTiter-Glo); type: cell-based; details: for IC50: 72 h exposure, CellTiter-Glo
Procedure: as §5

[11] = test system: K-562; assay: In vitro cytotoxicity assay (CellTiter-Glo); type: cell-based; details: for IC50: 72 h exposure, CellTiter-Glo
Procedure: as §5

[12] = test system: NCI-H23; assay: In vitro cytotoxicity assay (CellTiter-Glo); type: cell-based; details: for IC50: 72 h exposure, CellTiter-Glo
Procedure: as §5

[13] = test system: NCI-H460; assay: In vitro cytotoxicity assay (CellTiter-Glo); type: cell-based; details: for IC50: 72 h exposure, CellTiter-Glo
Procedure: as §5

[14] = test system: NCI-H522; assay: In vitro cytotoxicity assay (CellTiter-Glo); type: cell-based; details: for IC50: 72 h exposure, CellTiter-Glo
Procedure: as §5

[15] = test system: RL; assay: In vitro cytotoxicity assay (CellTiter-Glo); type: cell-based; details: for IC50: 72 h exposure, CellTiter-Glo
Procedure: as §5

[16] = test system: SW-620; assay: In vitro cytotoxicity assay (CellTiter-Glo); type: cell-based; details: for IC50: 72 h exposure, CellTiter-Glo
Procedure: as §5

[17] = test system: PANC-1; assay: In vitro cytotoxicity assay (CellTiter-Glo); type: cell-based; details: 72 h exposure
Procedure: as §5
The PEG-gemcitabine derivatives and gemcitabine inhibited the growth of most of the cell lines with IC50 values from the nM to low μM range, except for PANC-1 cells. Like the previous study, some of the IC50 values should be interpreted carefully because the concentration range tested was not centered around the IC50. […] The PANC-1 pancreatic cell line, in contrast to BxPC-3, Capan-1, or MIA-PaCa-2, has been shown previously to be resistant in vitro to gemcitabine, and 4′-thio-FAC, a deoxycytidine sulfur- and fluoro-substituted analog (Zajchowski et al., (2005). Int J Cancer. 114(6), 1002-9).

[18] = on a mM basis
Procedure: Cells were inoculated into 24-well microtiter plates in 100 μL at 5×10^3 cells/well, in duplicate. After 24 h, test articles were added to the cells for 24 or 48 h, after which time the supernatant from each of the wells was collected and stored below −15° C. until LC/MS analysis.

[19] = test system: Caco-2 cells; assay: Bi-directional permeability in Caco-2 cells
Excerpt: Bi-Directional Permeability of PEG-Floxuridine Conjugates in Caco-2 and MDCK Cells

[20] = 48 h drug exposure, read-out: GI50 (molar concentration) in Cell Line DU145
[21] = cells exposed for 24 h, read-out: GI50 values (μM) DU145
[22] = 48 h drug exposure, read-out: GI50 (molar concentration) in Cell Line COLO205
[23] = cells exposed for 24 h, read-out: GI50 values (μM) COLO205
[24] = cells exposed for 24 h, read-out: GI50 values (μM) NCI/ADR-RES

Row | Compound | GI50 [1, 20] | GI50 [1, 21] | GI50 [2, 22] | GI50 [2, 23] | ratio vs gem (GI50) COLO-205 [2] | GI50 [3, 24] | Ratio vs gem (IC50) HCT-116 [4] | IC50 [4] | Ratio vs gem (IC50) HT-29 [5] | IC50 [5] | Ratio vs gem (IC50) MIA PaCa-2 [6] | IC50 [6] | Ratio vs gem (IC50) AS283 [7] | IC50 [7] | Ratio vs gem (IC50) CCRF-CEM [8] | IC50 [8] | Ratio vs gem (IC50) DLD-1 [9] | IC50 [9] | Ratio vs gem (IC50) HL-60 [10] | IC50 [10] | further results
1 | COCCOCCOCCOCCOCCOCCOCCOP(=O)(O)OC[C@H]1O[C@@H](n2ccc(N)nc2=O)C(F)(F)[C@@H]1O.Cl [Gemcitabine Mono (mPEG7), 5′-gemcitabine methoxy hepta(ethylene glycol) phosphate hydrochloride] | < 0.1 µM | < 0.1 µM | 0.18 µM | 0.18 µM | 1 | 2 µM | 2 | 4 nM | 56 | 6250 nM | 3 | 84 nM | 3 | 398 nM | 1 | 10 nM | 2 | 36 nM | 2 | 2.6 nM | GI50 ([3]; 48 h drug exposure, read-out: GI50 (molar concentration) in Cell Line NCI/ADR-RES): 2 µM; Ratio vs gem (IC50) K-562 [11]: 2; IC50 [11]: 1150 nM; Ratio vs gem (IC50) NCI-H23 [12]: 7; IC50 [12]: 47 nM; Ratio vs gem (IC50) NCI-H460 [13]: 3; IC50 [13]: 48 nM; Ratio vs gem (IC50) NCI-H522 [14]: 6; IC50 [14]: 26 nM; Ratio vs gem (IC50) RL [15]: 1; IC50 [15]: 259 nM; Ratio vs gem (IC50) SW-620 [16]: 4; IC50 [16]: 182 nM; IC50 [17]: > 1e+06 nM; remains after 24 and 48 h [18]: approximately 80%; Papp A -> B [19]: <0.06 10^−6 cm/s; Papp B -> A [19]: <0.08 10^−6 cm/s; Significant efflux [19]: No; percent recovery A -> B [19]: 74%; percent recovery B -> A [19]: 86%
2 | COCCOCCOCCOP(=O)(O)OC[C@H]1O[C@@H](n2ccc(N)nc2=O)C(F)(F)[C@@H]1O.Cl [Gemcitabine Mono (mPEG3), 5′-gemcitabine methoxy tri(ethylene glycol) phosphate hydrochloride] | < 0.1 µM | < 0.1 µM | 0.16 µM | 0.16 µM | 1 | 1.7 µM | 2 | 2.9 nM | 7 | 755 nM | 3 | 76 nM | 3 | 408 nM | 1 | 6.5 nM | 4 | 93 nM | 1 | 2 nM | Ratio vs gem (IC50) K-562 [11]: 1; IC50 [11]: 914 nM; Ratio vs gem (IC50) NCI-H23 [12]: 3; IC50 [12]: 18 nM; Ratio vs gem (IC50) NCI-H460 [13]: 3; IC50 [13]: 43 nM; Ratio vs gem (IC50) NCI-H522 [14]: 8; IC50 [14]: 36 nM; Ratio vs gem (IC50) RL [15]: 2; IC50 [15]: 568 nM; Ratio vs gem (IC50) SW-620 [16]: 2; IC50 [16]: 95 nM; IC50 [17]: > 1e+06 nM; remains after 24 and 48 h [18]: approximately 80%; Papp A -> B [19]: <0.06 10^−6 cm/s; Papp B -> A [19]: <0.08 10^−6 cm/s; Significant efflux [19]: No; percent recovery A -> B [19]: 78%; percent recovery B -> A [19]: 90%
